Reference: patent US20120136046A1, “METHOD OF TREATING AGE RELATED DISORDERS” (Chronos Therapeutics Limited, priority 2009, published 2012)

Assays:
C. elegans = C. elegans lifespan, percentage of living worms over time; assay type: in vivo; details: FIG. 5
Method: FK-506 was added to C. elegans during the timed egg laying stage and lifespan was measured as described in Sutphin, G. L., and Kaeberlein, M., (2009) J. Vis. Exp, 27. Briefly this method comprises synchronising a population of worms and measuring the percentage of living worms at a range of time points, scoring live worms by their ability to respond to physical stimulus.

[1] = test system: MRC5 human fibroblast cell line; experiment: Cell division rate / replicative lifespan of MRC5 fibroblasts; assay type: cell-based
Method: The cell division rate was measured using the method of Fairweather, D. S., M. Fox, and G. P. Margison, (1987), Exp Cell Res, 168(1): p. 153-9. Briefly, the replicative lifespan of MRC5 cells are measured by growing them on the surface of dishes until the reach confluencey whereupon they are split at a 1:2 ratio (i.e. diluted 1 in 2). The number of times the culture is split is equal to that of the number of divisions the cells are able to undertake which is the cultures replicative lifespan. MRC5 cells are only able to divide a finite number of times, and as they reach the end of their life the time they take to undergo cell division increases. In this instance the rate of cell division is used as a measure of age.

S. cerevisiae = experiment: Chronological lifespan of yeast, outgrowth method (Bioscreen C); assay type: cell-based; details: FIG. 4
Method: Lifespan was measured using the outgrowth method described by Murakami, C. and Kaeberlein, M., (2009) J. Vis. Exp, 27. Briefly, chronological lifespan of yeast refers to the profile of viability of an ageing yeast culture over time. To measure this a yeast culture is grown in liquid media until the glucose carbon source is exhausted and the cells stop dividing. At this point the proportion of cells which are alive and able to divide is measured by observing the outgrowth characteristics of a fresh inoculate of the ageing culture using a Bioscreen™ C machine (Oy Growth Curves Ab Ltd, Finland). Viabilities at various time points are compared to determine the chronological lifespan of the culture.

SMILES: C=CC[C@@H]1/C=C(\C)C[C@H](C)C[C@H](OC)[C@H]2O[C@@](O)(C(=O)C(=O)N3CCCC[C@H]3C(=O)O[C@H](/C(C)=C/[C@@H]3CC[C@@H](O)[C@H](OC)C3)[C@H](C)[C@@H](O)CC1=O)[C@H](C)C[C@@H]2OC [FK-506, fujimycin]
- lifespan of C. elegans (C. elegans; added during the timed egg laying stage): prolongs the lifespan of C. elegans in a dose dependent manner
- viability of the organisms (chronological lifespan) (C. elegans; addition of 4μ/ml): significant increase in the viability
- age dependent reduction in cell division rate ([1]; MRC5 cells, FIG. 6): appears to reverse age dependent reduction in cell division rate
- division time compared to a control having no FK-506 added ([1]; MRC5 cells, addition after 39 divisions): reduction of the division time
- toxicity to the cells ([1]; higher concentrations): becomes toxic to the cells
- effect on the chronological lifespan of the cells compared to the control (S. cerevisiae; 0.1 ng/ml in the culture medium): no significant effect
- effect on the median lifespan of the yeast cells compared to the control (S. cerevisiae; 1 ng/ml or more in the culture medium): significant effect increasing the median lifespan
